The source of these data is patent US20250026778A1 (TIUMBIO CO., LTD., priority 2021, published 2025).

Each structure is given as a SMILES string. Some results are limits rather than exact numbers.

For one test, the target named is T1, his-galectin-3 (Homo sapiens, UniProt P17931).
T1 construct: purchased Abcam
T1 sequence (P17931 whole entry): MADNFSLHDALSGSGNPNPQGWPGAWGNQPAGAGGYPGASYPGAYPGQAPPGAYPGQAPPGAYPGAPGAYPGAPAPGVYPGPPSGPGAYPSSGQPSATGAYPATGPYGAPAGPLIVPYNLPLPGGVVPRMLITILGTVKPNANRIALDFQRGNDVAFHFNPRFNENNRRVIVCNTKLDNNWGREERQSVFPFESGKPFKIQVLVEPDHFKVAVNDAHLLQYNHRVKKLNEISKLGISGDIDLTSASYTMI
The experiment in a line: TR-FRET assay (in vitro galectin-3 binding inhibitory activity test). The conditions noted are these: Table 1; compound at 20 μM; 60 nM his-galectin-3, 15 nM biotin-ASF; read-out: % Inhibitory activity (at 20 μM). Put shortly:
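Compound is premixed with his-galectin-3 (60 nM final), then biotin-ASF (15 nM), Tb anti-His antibody (2 nM) and streptavidin-d2 (20 nM) are added. After at least 3.5 hours at RT in HEPES/NaCl buffer with Tween 20 and BSA, TR-FRET is read at 615/665 nm. DMSO serves as the uninhibited control, ASF omission as background.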
(TR-FRET usually uses a lanthanide donor and a delayed reading to cut background.)
Regarding `OC[C@H]1O[C@@]2(CCCCS2)[C@H](O)[C@@H](n2cc(-c3cc(F)c(F)c(F)c3)nn2)[C@H]1O` [Compound A109, (2R,3R,4S,5R,6R)-2-(hydroxymethyl)-4-(4-(3,4,5-trifluorophenyl)-1H-1,2,3-triazol-1-yl)-1-oxa-7-thiaspiro[5.5]undecane-3,5-diol], the inhibition at 20 µM is < 25%.

As for `OC[C@H]1O[C@@]2(CCCNC2)[C@H](O)[C@@H](n2cc(-c3cc(F)c(F)c(F)c3)nn2)[C@H]1O` [Compound A110, (2R,3R,4S,5R,6R)-2-(hydroxymethyl)-4-(4-(3,4,5-trifluorophenyl)-1H-1,2,3-triazol-1-yl)-1-oxa-8-azaspiro[5.5]undecane-3,5-diol], the inhibition at 20 µM is < 25%.

`O=C(Cc1cccc2ccccc12)N[C@@H]1CCO[C@]12O[C@H](CO)[C@H](O)[C@H](n1cc(-c3cc(F)c(F)c(F)c3)nn1)[C@H]2O` [Compound A111, N-((4R,5S,7R,8R,9S,10R)-8,10-dihydroxy-7-(hydroxymethyl)-9-(4-(3,4,5-trifluorophenyl)-1H-1,2,3-triazol-1-yl)-1,6-dioxaspiro[4.5]decan-4-yl)-2-(naphthalen-1-yl)acetamide]: the inhibition at 20 µM lay within 25 to 50%.

In the case of `O=C(Cc1ccccc1Cl)N[C@@H]1CCO[C@]12O[C@H](CO)[C@H](O)[C@H](n1cc(-c3cc(F)c(F)c(F)c3)nn1)[C@H]2O` [Compound A112, 2-(2-chlorophenyl)-N-((4R,5S,7R,8R,9S,10R)-8,10-dihydroxy-7-(hydroxymethyl)-9-(4-(3,4,5-trifluorophenyl)-1H-1,2,3-triazol-1-yl)-1,6-dioxaspiro[4.5]decan-4-yl)acetamide], the inhibition at 20 µM is 50 to 75%.

In the case of `O=C(Cc1cccc(F)c1)N[C@@H]1CCO[C@]12O[C@H](CO)[C@H](O)[C@H](n1cc(-c3cc(F)c(F)c(F)c3)nn1)[C@H]2O` [Compound A113, N-((4R,5S,7R,8R,9S,10R)-8,10-dihydroxy-7-(hydroxymethyl)-9-(4-(3,4,5-trifluorophenyl)-1H-1,2,3-triazol-1-yl)-1,6-dioxaspiro[4.5]decan-4-yl)-2-(3-fluorophenyl)acetamide], the inhibition at 20 µM lay in the range of 50 to 75%.

Consider `O=C(N[C@@H]1CCO[C@]12O[C@H](CO)[C@H](O)[C@H](n1cc(-c3cc(F)c(F)c(F)c3)nn1)[C@H]2O)C1(c2ccccc2)CC1` [Compound A114, N-((4R,5S,7R,8R,9S,10R)-8,10-dihydroxy-7-(hydroxymethyl)-9-(4-(3,4,5-trifluorophenyl)-1H-1,2,3-triazol-1-yl)-1,6-dioxaspiro[4.5]decan-4-yl)-1-phenylcyclopropanecarboxamide], for which the inhibition at 20 µM is < 25%.

Consider `O=C(Cc1ccc2ccccc2c1)N[C@@H]1CCO[C@]12O[C@H](CO)[C@H](O)[C@H](n1cc(-c3cc(F)c(F)c(F)c3)nn1)[C@H]2O` [Compound A115, N-((4R,5S,7R,8R,9S,10R)-8,10-dihydroxy-7-(hydroxymethyl)-9-(4-(3,4,5-trifluorophenyl)-1H-1,2,3-triazol-1-yl)-1,6-dioxaspiro[4.5]decan-4-yl)-2-(naphthalen-2-yl)acetamide], for which the inhibition at 20 µM fell in the range of 50 to 75%.

For `COc1cccc(CC(=O)N[C@@H]2CCO[C@]23O[C@H](CO)[C@H](O)[C@H](n2cc(-c4cc(F)c(F)c(F)c4)nn2)[C@H]3O)c1` [Compound A116, N-((4R,5S,7R,8R,9S,10R)-8,10-dihydroxy-7-(hydroxymethyl)-9-(4-(3,4,5-trifluorophenyl)-1H-1,2,3-triazol-1-yl)-1,6-dioxaspiro[4.5]decan-4-yl)-2-(3-methoxyphenyl)acetamide], the inhibition at 20 µM fell in the range of 50 to 75%.

Take `O=C(Cc1ccc(Cl)cc1)N[C@@H]1CCO[C@]12O[C@H](CO)[C@H](O)[C@H](n1cc(-c3cc(F)c(F)c(F)c3)nn1)[C@H]2O` [Compound A117, 2-(4-chlorophenyl)-N-((4R,5S,7R,8R,9S,10R)-8,10-dihydroxy-7-(hydroxymethyl)-9-(4-(3,4,5-trifluorophenyl)-1H-1,2,3-triazol-1-yl)-1,6-dioxaspiro[4.5]decan-4-yl)acetamide]: the inhibition at 20 µM lay in the range of 50 to 75%.

`COc1cccc(C(=O)N[C@@H]2CCO[C@]23O[C@H](CO)[C@H](O)[C@H](n2cc(-c4cc(F)c(F)c(F)c4)nn2)[C@H]3O)c1` [Compound A118, N-((4R,5S,7R,8R,9S,10R)-8,10-dihydroxy-7-(hydroxymethyl)-9-(4-(3,4,5-trifluorophenyl)-1H-1,2,3-triazol-1-yl)-1,6-dioxaspiro[4.5]decan-4-yl)-3-methoxybenzamide]: the inhibition at 20 µM is > 75%.

`O=C(N[C@@H]1CCO[C@]12O[C@H](CO)[C@H](O)[C@H](n1cc(-c3cc(F)c(F)c(F)c3)nn1)[C@H]2O)c1ccc(Oc2ccccc2)cc1` [Compound A120, N-((4R,5S,7R,8R,9S,10R)-8,10-dihydroxy-7-(hydroxymethyl)-9-(4-(3,4,5-trifluorophenyl)-1H-1,2,3-triazol-1-yl)-1,6-dioxaspiro[4.5]decan-4-yl)-4-phenoxybenzamide]: the inhibition at 20 µM is 25 to 50%.

With `O=C(N[C@@H]1CCO[C@]12O[C@H](CO)[C@H](O)[C@H](n1cc(-c3cc(F)c(F)c(F)c3)nn1)[C@H]2O)c1ccccc1-c1ccccc1` [Compound A121, N-((4R,5S,7R,8R,9S,10R)-8,10-dihydroxy-7-(hydroxymethyl)-9-(4-(3,4,5-trifluorophenyl)-1H-1,2,3-triazol-1-yl)-1,6-dioxaspiro[4.5]decan-4-yl)-[1.1′ biphenyl]-2-carboxamide], the inhibition at 20 µM lay within 25 to 50%.

As for `O=C(N[C@@H]1CCO[C@]12O[C@H](CO)[C@H](O)[C@H](n1cc(-c3cc(F)c(F)c(F)c3)nn1)[C@H]2O)c1cccc(OC(F)(F)F)c1` [Compound A122, N-((4R,5S,7R,8R,9S,10R)-8,10-dihydroxy-7-(hydroxymethyl)-9-(4-(3,4,5-trifluorophenyl)-1H-1,2,3-triazol-1-yl)-1,6-dioxaspiro[4.5]decan-4-yl)-3-(trifluoromethoxy)benzamide], the inhibition at 20 µM lay in the range of 50 to 75%.

In the case of `O=C(N[C@@H]1CCO[C@]12O[C@H](CO)[C@H](O)[C@H](n1cc(-c3cc(F)c(F)c(F)c3)nn1)[C@H]2O)c1cc2ccccc2o1` [Compound A123, N-((4R,5S,7R,8R,9S,10R)-8,10-dihydroxy-7-(hydroxymethyl)-9-(4-(3,4,5-trifluorophenyl)-1H-1,2,3-triazol-1-yl)-1,6-dioxaspiro[4.5]decan-4-yl)benzofuran-2-carboxamide], the inhibition at 20 µM was 50 to 75%.

On to `O=C(N[C@@H]1CCO[C@]12O[C@H](CO)[C@H](O)[C@H](n1cc(-c3cc(F)c(F)c(F)c3)nn1)[C@H]2O)c1cc2ccccc2s1` [Compound A124, N-((4R,5S,7R,8R,9S,10R)-8,10-dihydroxy-7-(hydroxymethyl)-9-(4-(3,4,5-trifluorophenyl)-1H-1,2,3-triazol-1-yl)-1,6-dioxaspiro[4.5]decan-4-yl)benzo[b]thiophene-2-carboxamide], for which the inhibition at 20 µM was in the range of 50 to 75%.

The test is the same for the next values; noted with them: Table 3, found values; compound at 20 μM; 60 nM his-galectin-3, 15 nM biotin-ASF; read-out: % Inhibitory activity (at 20 μM).
Turning to `O=C(Cc1ccccc1Cl)N[C@@H]1CCO[C@]12O[C@H](CO)[C@H](O)[C@H](n1cc(-c3cc(F)c(F)c(F)c3)nn1)[C@H]2O` [Compound A112, 2-(2-chlorophenyl)-N-((4R,5S,7R,8R,9S,10R)-8,10-dihydroxy-7-(hydroxymethyl)-9-(4-(3,4,5-trifluorophenyl)-1H-1,2,3-triazol-1-yl)-1,6-dioxaspiro[4.5]decan-4-yl)acetamide], the inhibition at 20 µM was determined as 53.8%.

The same test, now with this note: read-out: % Inhibitory activity (at 20 μM), Table 1; compound at 20 μM; 60 nM his-galectin-3, 15 nM biotin-ASF.
Regarding `O=C(N[C@@H]1CCO[C@]12O[C@H](CO)[C@H](O)[C@H](n1cc(-c3cc(F)c(F)c(F)c3)nn1)[C@H]2O)c1cccc(Cl)c1` [Compound A119, 3-chloro-N-((4R,5S,7R,8R,9S,10R)-8,10-dihydroxy-7-(hydroxymethyl)-9-(4-(3,4,5-trifluorophenyl)-1H-1,2,3-triazol-1-yl)-1,6-dioxaspiro[4.5]decan-4-yl)benzamide], the inhibition at 20 µM is > 75%.

The test is the same for the next values; noted with them: read-out: % Inhibitory activity (at 20 μM), Table 3, found values; compound at 20 μM; 60 nM his-galectin-3, 15 nM biotin-ASF.
Consider `O=C(N[C@@H]1CCO[C@]12O[C@H](CO)[C@H](O)[C@H](n1cc(-c3cc(F)c(F)c(F)c3)nn1)[C@H]2O)c1cccc(Cl)c1` [Compound A119, 3-chloro-N-((4R,5S,7R,8R,9S,10R)-8,10-dihydroxy-7-(hydroxymethyl)-9-(4-(3,4,5-trifluorophenyl)-1H-1,2,3-triazol-1-yl)-1,6-dioxaspiro[4.5]decan-4-yl)benzamide], for which the inhibition at 20 µM is 93.7%.
